Common to all, as to assay type: cell-based
Test [1] concerns B16 murine melanoma cells. Briefly: Growth inhibition of B16 murine melanoma cells, MTT assay. As to conditions: B16 melanoma cells; read-out: IC50, growth inhibition. The method, then:
The growth inhibitory activities of bis(propargylic) sulfone crown ethers 2.47 and 2.48 against B16 murine melanoma cells were determined calorimetrically with an MTT assay conducted by the Institute for Drug Development at the Cancer Research and Therapy Center in San Antonio, Tex.
A general note: Tetrazolium dyes change colour on reduction, which living cells bring about.

The next test relates to A-549/ATCC. Briefly: DTP Human Tumor Cell Line Screen, sulforhodamine B assay. The note with it: 48 h. The method, then: (§1) The growth inhibitory activity of propargylic sulfone 3.2 against a wide range of human cancer cell lines was determined calorimetrically with sulforhodamine B assay conducted by the National Cancer Institute of the National Institutes of Health.
(§2) The in vitro cytotoxicity of compounds 2.47, 2.48 and 3.2 were investigated using the DTP Human Tumor Cell Line Screen. The concept, rationale and history of development of the DTP Human Tumor Cell Line Screen were described by Boyd (1993;1997)^8.4, 8.6 and Boyd and Paull (1995)^8.5. Further technical details of the NCI screening procedures were described (Monks, et. al.)^8.2 as were the origins and processing of the cell lines (Alley, et. al., Shoemaker, et. al., Stinson, et. al.). Briefly, cell suspensions that were diluted according to the particular cell type and the expected target cell density (5000-40,000 cells per well based on cell growth characteristics) were added by pipet (100 μL) into 96-well microtiter plates. Inoculates were allowed a preincubation period of 24 h at 37° C. for stabilization. Dilutions at twice the intended test concentration were added at time zero in 100-μL aliquots to the microtiter plate wells. Usually, test compounds were evaluated at five 10-fold dilutions. In routine testing, the highest well concentration is 10E-4 M, but for the standard agents the highest well concentration used depended on the agent. Incubations lasted for 48 h in 5% CO2 atmosphere and 100% humidity. The cells were assayed by using the sulforhodamine B assay (Rubinstein, et. al., Skehan, et. al.). A plate reader was used to read the optical densities, and a microcomputer processed the optical densities into the special concentration parameters.

Another test relates to BT-549. Described as above. The note with it: Breast Cancer, 48 h. The method, then: as §1, §2
In a further test the test system is DU-145. The description is as above. As to conditions: Prostate Cancer, 48 h. The method, then: as §1, §2
The subject of the next test is EKVX. Described as above. As to conditions: Non-Small Cell Lung Cancer, 48 h. The method, then:
as §1, §2

For another test, the system named is HOP-62. The test is described as above. The note with it: Non-Small Cell Lung Cancer, 48 h. The method, then:
as §1, §2

For a further test, the system named is MDA-MB-231/ATCC. The description is as above. The note with it: Breast Cancer, 48 h. The method, then:
as §1, §2

The test system of another test is MOLT-4. Described as above. The note with it: Leukemia, 48 h. The method, then: as §1, §2
A further test relates to NCI-H322M. The test is described as above. As to conditions: Non-Small Cell Lung Cancer, 48 h. The method, then:
as §1, §2

The next test relates to NCI-H522. The description is as above. The note with it: Non-Small Cell Lung Cancer, 48 h. The method, then: as §1, §2
The subject of a further test is OVCAR-3. Described as above. As to conditions: Ovarian Cancer, 48 h. The method, then: as §1, §2
For another test, the system named is OVCAR-5. The description is as above. The note with it: Ovarian Cancer, 48 h. The method, then: as §1, §2
The next test deals with OVCAR-8. The test is described as above. The note with it: Ovarian Cancer, 48 h. The method, then: as §1, §2
For a further test, the system named is RXF 393. Described as above. As to conditions: Renal Cancer, 48 h. The method, then: as §1, §2
In a further test the test system is SF-295. The test is described as above. As to conditions: CNS Cancer, 48 h. The method, then: as §1, §2
The subject of a further test is SNB-19. The description is as above. As to conditions: CNS Cancer, 48 h. The method, then:
as §1, §2

For another test, the system named is T-47D. The test is described as above. As to conditions: Breast Cancer, 48 h. The method, then:
as §1, §2

For the next test, the system named is U251. The test is described as above. The note with it: 48 h. The method, then:
as §1, §2

The next test deals with M14. The description is as above. As to conditions: Melanoma, 48 h. The method, then: as §1, §2
The test system of the next test is RPMI-8226. The test is described as above. The note with it: Leukemia, 48 h. The method, then:
as §1, §2

Take `O=S1(=O)CC#CCOCCOCCOCCOCCOCCOCC#CC1` [Compound 2.47]: the IC50 in test [1] worked out at 54.2 µM; with A-549/ATCC (Non-Small Cell Lung Cancer) it was 20.2 µM; in the test on BT-549, 14.1 µM; with DU-145, 32.8 µM; with EKVX, 15.1 µM; in the test on HOP-62, 21.7 µM. Further, the half-maximal inhibitory concentration (IC50) in the test on MDA-MB-231/ATCC is 20 µM; with MOLT-4, 3.7 µM; in the test on NCI-H322M, 17.5 µM; in the test with NCI-H522, 2.86 µM; in the test with OVCAR-3 it was 15.8 µM; in the test on OVCAR-5 it was 17.1 µM. In addition, the IC50 worked out at 14.2 µM with OVCAR-8; 15.1 µM in the test with RXF 393; 32 µM in the test on SF-295; 18.2 µM in the test on SNB-19; 20.6 µM in the test on T-47D; 16.9 µM with U251 (CNS Cancer).
For `O=S1(=O)CC#CCOCCOCCOCCOCCOCCOCCOCC#CC1` [Compound 2.48], the IC50 in test [1] was 44.7 µM; in the test with A-549/ATCC (Non-Small Cell Lung Cancer), 61.7 µM; with BT-549, 20 µM; in the test on DU-145, > 100 µM; in the test on EKVX, 20.9 µM; in the test on HOP-62, 21 µM. Besides, the IC50 with M14 is 16.9 µM; in the test with MDA-MB-231/ATCC it was 23.5 µM; with MOLT-4 it was 19.9 µM; in the test with NCI-H322M, 32.3 µM; in the test with NCI-H522, 10.6 µM; with OVCAR-3, 19.7 µM. Moreover, the IC50 in the test on OVCAR-5 was 18 µM; with OVCAR-8 it was 33.3 µM; in the test with RPMI-8226, 17.4 µM; with RXF 393, 27 µM; in the test on SF-295, 81.2 µM; in the test on SNB-19 it was 27.9 µM. Also, the IC50 in the test with T-47D was 24.5 µM; in the test on U251 (CNS Cancer) it was 18.3 µM.
As for `O=C(OCC1COCCOCCOCCOCCO1)c1ccc(CS(=O)(=O)CC#CCO)cc1` (centres unmarked) [Compound 3.2], the IC50 with A-549/ATCC (Homo sapiens, A549, Non-Small Cell Lung Cancer) is > 100 µM; with BT-549 (Homo sapiens) it was > 100 µM; in the test on DU-145 (Homo sapiens), > 100 µM; in the test with EKVX (Homo sapiens), > 100 µM; with HOP-62 (Homo sapiens), > 100 µM; with M14 (Homo sapiens) it was > 100 µM. Also, the concentration for half-maximal inhibition (IC50) was > 100 µM in the test on MDA-MB-231/ATCC (Homo sapiens); > 100 µM in the test on MOLT-4 (Homo sapiens); 34.3 µM with NCI-H322M (Homo sapiens); 18.8 µM in the test with NCI-H522 (Homo sapiens); > 100 µM in the test with OVCAR-3 (Homo sapiens); > 100 µM in the test with OVCAR-5 (Homo sapiens). The half-inhibitory concentration (IC50) in the test with OVCAR-8 (Homo sapiens) is > 100 µM; with RPMI-8226 (Homo sapiens) it was 8.4 µM; in the test with RXF 393 (Homo sapiens) it was > 100 µM; with SF-295 (Homo sapiens), > 100 µM; in the test with SNB-19 (Homo sapiens), > 100 µM; in the test with U251 (Homo sapiens, U-251, CNS Cancer), 69 µM.

In general, IC50 refers to the concentration at which inhibition is half-maximal.

The values above are taken from patent US20020155443A1, “Metal binding DNA interactive compounds” (priority 2000, published 2002).
